Test results as given in ChEMBL document CHEMBL1201862, “PubChem BioAssay data set” (2004).
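Where inhibition never reached the appropriate level, the endpoint shown equals the highest concentration tested. Otherwise, values were interpolated linearly from a five-concentration, 48-hour dose response in 96-well plates. GI50 marks 50% less growth.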 Calls of active or inactive are those of the source. No stated cut-off is given here; in the data, active = GI50 up to about 1.1 µM and inactive = higher.

Key:
Test in all cases: DTP human tumour cell line panel, 48 h
[1] = system: SF-295
[2] = system: MOLT-4
[3] = system: CAKI-1
[4] = system: A549
[5] = system: HOP-62
[6] = system: NCI-H23
[7] = system: A498
[8] = system: HCC 2998
[9] = system: OVCAR-3
[10] = system: SK-MEL-5
[11] = system: K562
[12] = system: HCT-116
[13] = system: ACHN
[14] = system: OVCAR-4
[15] = system: CCRF-CEM
[16] = system: Malme-3M
[17] = system: RPMI-8226

Measured: GI50

Oc1nc(CC(O)c2ccc(Cl)c(Cl)c2)cc(-c2ccccc2)n1 (configuration not stated)
inactive: [1] 53.7 µM | [2] 75.3 µM | [3] 55.6 µM | [4] 27.1 µM | [5] > 100 µM | [6] 71.9 µM | [7] 32.7 µM | [8] 33.5 µM | [9] 48.8 µM | [10] 37.8 µM | [11] 51.3 µM | [12] 49.8 µM | [13] > 100 µM | [14] 68.4 µM | [15] 30.1 µM | [16] 46.8 µM

Cc1cc(N(CCC#N)CCC#N)ccc1/N=N/c1cc(Cl)ccc1Cl
inactive: [1] 19.6 µM | [2] 5.13 µM | [3] 3.5 µM | [4] 19.2 µM | [5] 19.5 µM | [6] 13.4 µM | [7] 20.1 µM | [8] 16.6 µM | [9] 5.51 µM | [10] 16.4 µM | [11] 2.78 µM | [13] 12.8 µM | [14] 3.07 µM | [17] 5.35 µM | [15] 2.92 µM | [16] 4.98 µM

COC(=O)/C=c1\s/c(=C\C(=O)OC)c2ccccc12
inactive: [1] > 100 µM | [2] > 100 µM | [3] > 100 µM | [4] > 100 µM | [6] > 100 µM | [7] > 100 µM | [8] > 100 µM | [9] > 100 µM | [10] > 100 µM | [11] > 100 µM | [12] > 100 µM | [13] > 100 µM | [14] > 100 µM | [17] > 100 µM | [15] > 100 µM | [16] > 100 µM

COc1ccc2oc(-c3cccnc3)cc(=O)c2c1
inactive: [1] > 100 µM | [2] 36.6 µM | [3] 42.7 µM | [5] 84.7 µM | [6] > 100 µM | [7] 61.2 µM | [8] > 100 µM | [9] 91.8 µM | [11] 67.8 µM | [12] 80.7 µM | [13] 59.3 µM | [14] > 100 µM | [17] 53 µM | [15] 49.9 µM | [16] > 100 µM

C[C@]12CCC(=O)C=C1CC[C@@H]1C2CC[C@]2(C)NC(=O)C(C#N)CC12 (some centres not stated)
inactive: [1] > 100 µM | [2] > 100 µM | [3] > 100 µM | [4] > 100 µM | [5] 39.6 µM | [6] > 100 µM | [7] > 100 µM | [8] > 100 µM | [9] > 100 µM | [10] > 100 µM | [11] > 100 µM | [12] > 100 µM | [13] > 100 µM | [14] > 100 µM | [17] > 100 µM | [15] > 100 µM | [16] > 100 µM

CN[C@@H](C)[C@@H](NC)c1ccccc1
inactive: [1] > 100 µM | [2] > 100 µM | [3] > 100 µM | [4] > 100 µM | [6] > 100 µM | [7] > 100 µM | [8] > 100 µM | [9] > 100 µM | [10] > 100 µM | [11] > 100 µM | [12] > 100 µM | [13] > 100 µM | [17] > 100 µM | [15] > 100 µM

CC(=O)Nc1cccc2[nH]c3ccccc3c(=O)c12
inactive: [1] 19.5 µM | [2] 17.1 µM | [3] 12.2 µM | [4] 21.6 µM | [6] 12.3 µM | [7] 14.9 µM | [9] 20.1 µM | [10] 15.3 µM | [11] 21.8 µM | [12] 11.5 µM | [13] 17.4 µM | [14] 22.8 µM | [17] 14.7 µM | [15] 21.5 µM | [16] 22.3 µM

O=C(NCCNCCO)N/N=C/c1cccc([N+](=O)[O-])c1
inactive: [1] > 100 µM | [2] > 100 µM | [3] > 100 µM | [4] > 100 µM | [5] > 100 µM | [6] > 100 µM | [7] > 100 µM | [9] > 100 µM | [10] > 100 µM | [11] > 100 µM | [12] > 100 µM | [13] > 100 µM | [14] > 100 µM | [17] > 100 µM | [15] > 100 µM | [16] > 100 µM

O=C(CC/C(C/C(=N/O)c1ccc(F)cc1)=N/O)N(Cc1ccccc1)Cc1ccccc1
inactive: [1] > 100 µM | [2] > 100 µM | [3] > 100 µM | [4] > 100 µM | [5] > 100 µM | [6] > 100 µM | [7] > 100 µM | [8] > 100 µM | [9] > 100 µM | [10] > 100 µM | [11] > 100 µM | [12] > 100 µM | [13] > 100 µM | [14] > 100 µM | [17] > 100 µM | [15] > 100 µM | [16] > 100 µM
